The values that follow come from article PMC4022547 (Molecular Brain, 2014).

In one experiment the target is hα6hβ4hβ3^V9’S-nAChR (Homo sapiens, UniProt P30926+Q05901+Q15825, V273S). The note with it: nicotine (100 μM), ACh (100 μM) or atropine (1000 μM); spontaneously opening channels. The procedure: (§1) We planned to introduce identical amounts of cRNA, presumably producing equal amounts of each subunit protein, into oocytes largely due to lack of information about the levels of mRNA for each subunits that compose α6*-nAChRs in neurons or other cells. Concentrations of cRNAs for each nAChR α and β subunits (WT, mutant or variant) were adjusted to 500 ng μL^−1. We provisionally assumed that hα6 or its variants in association with hβ2 or hβ4 subunits would form complexes having 2:3 and/or 3:2 ratios of the indicated subunits and that oocytes also injected with WT or mutant form of β3 subunits (i.e., β3^V9’S) would express nAChR with 2:2:1 ratios of α:β:(β3 or β3^V9’S) subunits. For expression of binary nAChRs (i.e., two subunit containing nAChRs; α + β but not β3) cRNA mixtures were prepared by mixing 1 μL of cRNA for each subunit and an additional μL of RNAse free water (i.e., total volume 3 μL). Similarly for expression of ternary nAChRs [i.e., three subunit containing nAChRs; (α + β) + (β3 or β3^V9’S)] cRNA mixtures were prepared by mixing 1 μL of cRNA for each subunit. Several preparations of each mixture were prepared and stored at −80°C until further use. Injection of 138 nL of cRNA, out of 3 μL cRNA mixtures, into each oocyte would deliver ~23 ng of cRNA for each subunit whether binary or ternary nAChRs are expressed.
(§2) Two to 5 days after injection, oocytes were placed in a small-volume chamber and continuously perfused with OR2. The chamber was grounded through an agarose bridge. The oocytes were voltage-clamped at −70 mV (unless otherwise noted) to measure agonist or antagonist induced currents using Axoclamp 900A and pClamp 10.2 software (Molecular Devices, Sunnyvale, CA). The current signal was low-pass filtered at 10 Hz with the built-in low-pass Bessel filter in the Axoclamp 900A and digitized at 20 Hz with Axon Digidata1440A and pClamp10. […] Drugs (agonists and antagonists) were prepared daily in OR2. Drug was applied using a Valvelink 8.2 perfusion system (Automate scientific, Berkeley, CA). […] Then for the purpose of comparison electrophysiological recordings were performed in a given day in a given batch of oocytes following the same order of injections. […] All hβ4*-nAChR recordings were done in similar conditions to facilitate comparisons between hα6hβ4- and hα6hβ4hβ3-nAChRs. All electrophysiological measurements were conducted or checked in at least two batches of oocytes.

The target of experiment [1] is hα6^N171Khβ4β3^V9’S-nAChR (Homo sapiens, UniProt P30926+Q15825, N171K). As to conditions: nicotine (100 μM), ACh (100 μM) or atropine (1000 μM). On the procedure: as §1, §2
For experiment [2], the target named is hα6^R87C + hβ4 + hβ3^V9’S nAChR (Homo sapiens, UniProt P30926+Q15825, R87C). As to conditions: nicotine (100 μM), ACh (100 μM) or atropine (1000 μM). The procedure:
as §1, §2

In experiment [3] the target is hα6^D57Nhβ4hβ3^V9’S-nAChR (Homo sapiens, UniProt P30926+Q15825, D57N). As to conditions: nicotine (100 μM), ACh (100 μM) or atropine (1000 μM). On the procedure: as §1, §2
For experiment [4], the target named is hα6^S156Rhβ4hβ3^V9’S-nAChR (Homo sapiens, UniProt P30926+Q15825, S156R). As to conditions: nicotine (100 μM), ACh (100 μM) or atropine (1000 μM). The procedure: as §1, §2
The target of a further experiment is T1, hα6(R96H) + hβ4 nAChR (Homo sapiens, UniProt P30926+Q15825, R96H).
T1 construct: Full length capped mRNA (i.e., cRNA) was transcribed from linearized plasmids; expressed in transfected cells; host or cells: Xenopus laevis oocytes injected with cRNA
The experiment is described as follows: Oocyte two-electrode voltage clamp. It counts as cell-based. The note with it: 1000 μM ACh; 1 μM atropine co-applied. On the procedure: as §1, §2
(§3) Raw data was collected and processed in part using pClamp 10.2 (Molecular Devices, Sunnyvale, CA), Origin 7.5 (OriginLab Corporation, Northampton, MA) and a spreadsheet (Excel; Microsoft, Bellevue, WA). Peak current amplitudes (Imax) are reported as mean ± SEM (for results from at least three oocytes, i.e., n = 3).
On the technique in general: Two-electrode voltage clamp holds a large cell at a set potential and records current.

Experiment [5] has as its target hα6(D199Y) + hβ4 + hβ3 nAChR (Homo sapiens, UniProt P30926+Q15825, D199Y). The experiment is described as follows: Oocyte two-electrode voltage clamp. It is filed as cell-based. The procedure:
as §1, §2, §3

The target of experiment [6] is T2, hα6(R87C) + WT hβ2 + hβ3^V9’S nAChR (Homo sapiens, UniProt P17787+Q15825, R87C).
T2 construct: Full length capped mRNA (i.e., cRNA) was transcribed from linearized plasmids; expressed in transfected cells; host or cells: Xenopus laevis oocytes injected with cRNA
The experiment is described as follows: Oocyte two-electrode voltage clamp. As to conditions: ACh, nicotine or atropine; hβ2 type not specified. It counts as cell-based. On the procedure:
as §1, §2, §3

Chain of hα6(D199Y) + hβ4 + hβ3 nAChR (Q15825 26-494 D199Y): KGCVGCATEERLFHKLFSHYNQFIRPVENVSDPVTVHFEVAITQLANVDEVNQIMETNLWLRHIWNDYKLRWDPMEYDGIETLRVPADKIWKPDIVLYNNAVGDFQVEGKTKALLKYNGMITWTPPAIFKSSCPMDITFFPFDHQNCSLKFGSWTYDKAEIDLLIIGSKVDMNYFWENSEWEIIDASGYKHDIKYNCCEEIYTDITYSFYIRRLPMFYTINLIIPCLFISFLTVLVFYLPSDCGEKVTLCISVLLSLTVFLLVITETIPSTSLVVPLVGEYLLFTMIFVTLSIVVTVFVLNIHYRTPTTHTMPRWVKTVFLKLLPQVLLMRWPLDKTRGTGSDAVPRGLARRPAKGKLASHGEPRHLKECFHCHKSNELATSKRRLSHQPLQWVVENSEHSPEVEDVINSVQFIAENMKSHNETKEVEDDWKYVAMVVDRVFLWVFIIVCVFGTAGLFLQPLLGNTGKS
Chain of hα6(D199Y) + hβ4 + hβ3 nAChR (P30926 22-498): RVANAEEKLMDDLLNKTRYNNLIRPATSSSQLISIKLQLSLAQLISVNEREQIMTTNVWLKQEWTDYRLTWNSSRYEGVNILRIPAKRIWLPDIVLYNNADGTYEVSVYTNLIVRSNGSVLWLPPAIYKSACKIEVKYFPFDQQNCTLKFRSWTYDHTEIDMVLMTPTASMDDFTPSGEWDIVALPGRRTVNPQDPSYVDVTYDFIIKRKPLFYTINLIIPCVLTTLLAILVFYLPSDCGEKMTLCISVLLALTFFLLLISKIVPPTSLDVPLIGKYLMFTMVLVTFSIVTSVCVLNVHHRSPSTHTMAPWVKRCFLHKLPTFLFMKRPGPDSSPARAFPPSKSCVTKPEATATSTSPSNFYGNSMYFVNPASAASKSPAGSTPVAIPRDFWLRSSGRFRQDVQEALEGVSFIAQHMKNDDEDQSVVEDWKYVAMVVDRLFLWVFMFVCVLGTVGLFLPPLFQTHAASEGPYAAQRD
Chain of hα6(D199Y) + hβ4 + hβ3 nAChR (Q05901 25-458 partner limits assumed): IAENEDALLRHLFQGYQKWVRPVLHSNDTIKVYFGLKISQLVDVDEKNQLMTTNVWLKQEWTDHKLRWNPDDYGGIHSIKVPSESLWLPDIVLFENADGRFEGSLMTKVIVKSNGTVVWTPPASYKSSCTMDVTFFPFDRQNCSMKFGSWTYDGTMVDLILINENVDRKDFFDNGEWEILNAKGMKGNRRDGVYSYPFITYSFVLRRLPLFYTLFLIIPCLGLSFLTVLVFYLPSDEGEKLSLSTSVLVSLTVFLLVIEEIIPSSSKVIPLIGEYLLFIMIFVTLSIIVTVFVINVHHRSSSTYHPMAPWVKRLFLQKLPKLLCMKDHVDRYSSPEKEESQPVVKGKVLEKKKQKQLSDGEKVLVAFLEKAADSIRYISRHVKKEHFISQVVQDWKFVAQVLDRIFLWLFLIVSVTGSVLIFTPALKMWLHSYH
Chain of hα6^D57Nhβ4hβ3^V9’S-nAChR (Q15825 26-494 D57N): as the sequence (Q15825 26-494 D199Y) above, with D32N, Y174D counted along it
Chain of hα6^D57Nhβ4hβ3^V9’S-nAChR (P30926 22-498): as the sequence (P30926 22-498) above
Chain of hα6^D57Nhβ4hβ3^V9’S-nAChR (Q05901 25-458 V273S partner limits assumed): as the sequence (Q05901 25-458 partner limits assumed) above, with V249S counted along it
Chain of hα6^R87C + hβ4 + hβ3^V9’S nAChR (Q15825 26-494 R87C): as the sequence (Q15825 26-494 D199Y) above, with R62C, Y174D counted along it
Chain of hα6^R87C + hβ4 + hβ3^V9’S nAChR (P30926 22-498): as the sequence (P30926 22-498) above
Chain of hα6^R87C + hβ4 + hβ3^V9’S nAChR (Q05901 25-458 V273S partner limits assumed): as the sequence (Q05901 25-458 partner limits assumed) above, with V249S counted along it
T2 sequence (Q15825 26-494 R87C): as the sequence (Q15825 26-494 D199Y) above, with R62C, Y174D counted along it
T2 sequence (P17787 26-502): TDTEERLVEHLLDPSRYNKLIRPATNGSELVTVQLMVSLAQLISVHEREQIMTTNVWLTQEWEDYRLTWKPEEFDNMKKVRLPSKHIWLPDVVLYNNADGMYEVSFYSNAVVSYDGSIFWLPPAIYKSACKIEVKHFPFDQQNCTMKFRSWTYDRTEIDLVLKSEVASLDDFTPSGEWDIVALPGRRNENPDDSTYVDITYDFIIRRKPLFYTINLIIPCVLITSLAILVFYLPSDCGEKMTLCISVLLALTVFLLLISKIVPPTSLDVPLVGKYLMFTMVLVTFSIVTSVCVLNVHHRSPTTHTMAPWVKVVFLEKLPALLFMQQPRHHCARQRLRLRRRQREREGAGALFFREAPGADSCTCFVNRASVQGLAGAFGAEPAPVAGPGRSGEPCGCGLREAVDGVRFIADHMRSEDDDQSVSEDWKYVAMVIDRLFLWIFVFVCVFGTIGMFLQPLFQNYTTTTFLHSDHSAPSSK
T2 sequence (Q05901 25-458 V273S partner limits assumed): as the sequence (Q05901 25-458 partner limits assumed) above, with V249S counted along it
Chain of hα6hβ4hβ3^V9’S-nAChR (Q15825 26-494): as the sequence (Q15825 26-494 D199Y) above, with Y174D counted along it
Chain of hα6hβ4hβ3^V9’S-nAChR (P30926 22-498): as the sequence (P30926 22-498) above
Chain of hα6hβ4hβ3^V9’S-nAChR (Q05901 22-458 V273S): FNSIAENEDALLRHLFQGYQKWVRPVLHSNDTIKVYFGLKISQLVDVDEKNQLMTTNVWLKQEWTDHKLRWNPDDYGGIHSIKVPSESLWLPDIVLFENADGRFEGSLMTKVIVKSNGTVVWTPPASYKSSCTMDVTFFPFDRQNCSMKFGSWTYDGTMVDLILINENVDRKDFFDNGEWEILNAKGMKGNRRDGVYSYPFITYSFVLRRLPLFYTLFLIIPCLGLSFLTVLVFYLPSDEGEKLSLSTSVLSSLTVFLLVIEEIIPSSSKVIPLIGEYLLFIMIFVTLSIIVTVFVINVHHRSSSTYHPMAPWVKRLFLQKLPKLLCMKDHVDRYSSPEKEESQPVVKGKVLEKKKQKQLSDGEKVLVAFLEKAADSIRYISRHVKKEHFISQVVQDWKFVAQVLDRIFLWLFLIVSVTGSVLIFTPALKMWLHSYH
Chain of hα6^S156Rhβ4hβ3^V9’S-nAChR (Q15825 26-494 S156R): as the sequence (Q15825 26-494 D199Y) above, with S131R, Y174D counted along it
Chain of hα6^S156Rhβ4hβ3^V9’S-nAChR (P30926 22-498): as the sequence (P30926 22-498) above
Chain of hα6^S156Rhβ4hβ3^V9’S-nAChR (Q05901 25-458 V273S partner limits assumed): as the sequence (Q05901 25-458 partner limits assumed) above, with V249S counted along it
Chain of hα6^N171Khβ4β3^V9’S-nAChR (Q15825 26-494 N171K): as the sequence (Q15825 26-494 D199Y) above, with N146K, Y174D counted along it
Chain of hα6^N171Khβ4β3^V9’S-nAChR (P30926 22-498): as the sequence (P30926 22-498) above
Chain of hα6^N171Khβ4β3^V9’S-nAChR (Q05901 25-458 V273S partner limits assumed): as the sequence (Q05901 25-458 partner limits assumed) above, with V249S counted along it
T1 sequence (Q15825 26-494 R96H): as the sequence (Q15825 26-494 D199Y) above, with R71H, Y174D counted along it
T1 sequence (P30926 22-498, stated change not applied): as the sequence (P30926 22-498) above

Consider `CC(=O)OCC[N+](C)(C)C` [ACh, acetylcholine], for which the “current response (direction)” value on hα6hβ4hβ3^V9’S-nAChR was “robust inward current”; in experiment [1] it was “outward reversible currents”; in experiment [3] it was “outward reversible currents”; in experiment [4], “outward reversible currents”. In addition, the current response entry in experiment [2] and in experiment [6] was “not obtained” throughout. Further, the “Mean Imax ± SE (nA)” value on hα6(R96H) + hβ4 nAChR was determined as 31 ± 4 nA; in experiment [5] (1000 μM ACh, 1 μM atropine co-applied) it was 494 ± 51 nA. In experiment [5], the “nH ± SE (Hill coefficient)” value was 1.1 ± 0.07.
